pIC50: −log10 of the molar value. Counter-ions that a name gives are not always drawn.
Target: T1, rat P2X3 receptor (Rattus norvegicus, UniProt P49654)
T1 sequence (P49654 1-397): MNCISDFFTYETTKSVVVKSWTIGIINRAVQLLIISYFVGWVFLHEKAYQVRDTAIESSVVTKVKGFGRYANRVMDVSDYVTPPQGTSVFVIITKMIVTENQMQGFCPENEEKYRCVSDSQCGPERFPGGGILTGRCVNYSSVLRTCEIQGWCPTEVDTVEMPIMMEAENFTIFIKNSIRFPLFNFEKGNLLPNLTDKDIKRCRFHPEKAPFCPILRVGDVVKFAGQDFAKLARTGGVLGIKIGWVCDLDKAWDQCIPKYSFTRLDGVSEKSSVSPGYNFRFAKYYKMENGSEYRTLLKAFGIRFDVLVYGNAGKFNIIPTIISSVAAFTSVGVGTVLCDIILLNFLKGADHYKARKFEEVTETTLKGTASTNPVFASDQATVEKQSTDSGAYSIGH
Test: cell-based
Protocol: P2X3/P2X2/3 FLIPR (Fluorometric Imaging Plate Reader) Assay
CHO-K1 cells were transfected with cloned rat P2X3 or human P2X2/3 receptor subunits and passaged in flasks. 18-24 hours before the FLIPR experiment, cells were released from their flasks, centrifuged, and resuspended in nutrient medium at 2.5×10^5 cells/ml. The cells were aliquoted into black-walled 96-well plates at a density of 50,000 cells/well and incubated overnight in 5% CO2 at 37° C. On the day of the experiment, cells were washed in FLIPR buffer (calcium- and magnesium-free Hank's balanced salt solution, 10 mM HEPES, 2 mM CaCl2, 2.5 mM probenecid; FB). […]
Test compounds (dissolved in DMSO at 10 mM and serially diluted with FB) or vehicle were added to each well (25 μl of a 4× solution) and allowed to equilibrate for 20 minutes at room temperature. The plates were then placed in the FLIPR and a baseline fluorescence measurement (excitation at 488 nm and emission at 510-570 nm) was obtained for 10 seconds before a 100 μl/well agonist or vehicle addition. […] Fluorescence was measured for an additional 2 minutes at 1 second intervals after agonist addition. A final addition of ionomycin (5 μM, final concentration) was made to each well of the FLIPR test plate to establish cell viability and maximum fluorescence of dye-bound cytosolic calcium. […]

Structure (SMILES) | pIC50
CC(C)c1cc(O)c(I)cc1Oc1cnc(N)nc1N [4-(2,4-Diamino-pyrimidin-5-yloxy)-2-iodo-5-isopropyl-phenol] | ~8.30
COc1cc(C)c(Cc2cnc(N)nc2N)cc1OC [5-(4,5-Dimethoxy-2-methyl-benzyl)-pyrimidine-2,4-diamine] | < 5.00

Tested on: not given
Test: not given

Structure (SMILES) | melting point
COc1cc(C(C)C)c(Oc2cnc(N[C@H](C)CO)nc2N)cc1Cl (as salt: hydrochloride) [Compound 120, 2-[4-Amino-5-(5-chloro-2-isopropyl-4-methoxy-phenoxy)-pyrimidin-2-ylamino]-(R)-propan-1-ol] | 111.4 to 116.9 °C
Cc1cn(C)c2cc(C(F)(F)F)c(Oc3cnc(N)nc3N)cc12 (as salt: hydrochloride) [Example 63, 5-(1,3-Dimethyl-6-trifluoromethyl-1H-indol-5-yloxy)-pyrimidine-2,4-diamine] | 256 °C
Cc1nc2c(C)cc(Oc3cnc(N)nc3N)c(C(C)C)c2o1 (as salt: hydrochloride) [Example 66, 5-(7-Isopropyl-2,4-dimethyl-benzooxazol-6-yloxy)-pyrimidine-2,4-diamine] | > 300 °C
COc1cc(C(C)C)c(Oc2cnc(N)nc2N)cc1-c1ncon1 (as salt: trifluoroacetic acid salt) [Example 57, 5-(2-Isopropyl-4-methoxy-5-[1,2,4]oxadiazol-3-yl-phenoxy)-pyrimidine-2,4-diamine] | 135 to 138.5 °C
CNC(=O)OC[C@@H](C)Nc1ncc(Oc2cc(Cl)c(OC)cc2C(C)C)c(N)n1 (stereo in doubt) [Example 7, Methyl-carbamic acid 2-[4-amino-5-(5-chloro-2-isopropyl-4-methoxy-phenoxy)-pyrimidin-2-ylamino]-propyl ester] | 63.5 to 69.4 °C
CC(C)c1cc2c(cc1Oc1cnc(N)nc1N)OCCN2C [Example 58, 5-(6-Isopropyl-4-methyl-3,4-dihydro-2H-benzo[1,4]oxazin-7-yloxy)-pyrimidine-2,4-diamine] | 167.3 to 170.1 °C
COc1cc(C(C)C)c(Oc2cnc(N)nc2N)cc1-c1ccco1 [Example 59, 5-(5-Furan-2-yl-2-isopropyl-4-methoxy-phenoxy)-pyrimidine-2,4-diamine] | 253.7 to 254.6 °C
COc1cc(C(C)C)c(Oc2cnc(N)nc2N)cc1N1CCN(S(C)(=O)=O)CC1 [Example 61, 5-[2-Isopropyl-5-(4-methanesulfonyl-piperazin-1-yl)-4-methoxy-phenoxy]-pyrimidine-2,4-diamine] | 115 to 117 °C
CCc1c(Oc2cnc(N)nc2N)cc(C)c2sccc12 [Example 62, 5-(4-Ethyl-7-methyl-benzo[b]thiophen-5-yloxy)-pyrimidine-2,4-diamine] | 181 °C
Cc1c(C(=O)O)[nH]c2cc(Oc3cnc(N)nc3N)c(C(C)C)cc12 [Example 64, 6-(2,4-Diamino-pyrimidin-5-yloxy)-5-isopropyl-3-methyl-1H-indole-2-carboxylic acid] | > 300 °C
